Values of other authors, collected in patent US7645462B2, “Acupoint patch” (3T Herbtech, Inc., priority 2002, dated 2010).

Columns and labels:
[1] = system: arteria femoralis blood circulation; conditions: intravenous 50 mg/kg, sedated animals

SMILES	arteria femoralis blood circulation [1]	external blood vessel resistance [1]	dilation of separated major arteries (separated major arteries)
COc1cc(/C=C/C(=O)O)ccc1O.[Na] [ferulic acid sodium]	increased	reduced	–
COc1cc(/C=C/C(=O)O)ccc1O [ferulic acid]	–	–	can dilate
